Laboratory results taken from the supplement of paper PMC6045584.
± gives the standard deviation of the averaged measurements.

Experiments:
AFATINIB = compound: CN(C)C/C=C/C(=O)Nc1cc2c(Nc3ccc(F)c(Cl)c3)ncnc2cc1O[C@H]1CCOC1 [AFATINIB]; assay: surviving fraction relative to DMSO-only wells; higher = less growth inhibition; conditions: exposure time: 5 days
In short: (§1)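 Continuous five-day exposure to inhibitors at 0.5, 1, 5, 10, 50, 100, 500 and 1000 nM started 24 hours after log-phase tumour cell lines were seeded at 250–500 cells per well in 384-well plates. Luminescence was read after 10 minutes at room temperature. Viability is given as surviving fraction, meaning CellTiter-Glo luminescence normalised to the median of DMSO-only wells.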

SNX-5422 = compound: CC1(C)CC(=O)c2c(C(F)(F)F)nn(-c3ccc(C(N)=O)c(N[C@H]4CC[C@H](OC(=O)CN)CC4)c3)c2C1 [SNX-5422]; assay: as above; conditions: exposure time: 5 days
In short: as §1

Row | Test System | surviving fraction (AFATINIB; 0.5 nM) | surviving fraction (AFATINIB; 1 nM) | surviving fraction (AFATINIB; 5 nM) | surviving fraction (AFATINIB; 10 nM) | surviving fraction (AFATINIB; 50 nM) | surviving fraction (AFATINIB; 100 nM) | surviving fraction (AFATINIB; 500 nM) | surviving fraction (AFATINIB; 1000 nM) | surviving fraction (SNX-5422; 0.5 nM) | surviving fraction (SNX-5422; 1 nM) | surviving fraction (SNX-5422; 5 nM) | surviving fraction (SNX-5422; 10 nM) | surviving fraction (SNX-5422; 50 nM) | surviving fraction (SNX-5422; 100 nM) | surviving fraction (SNX-5422; 500 nM) | surviving fraction (SNX-5422; 1000 nM)
1 | HCC202 BREAST | 1.12 ± 0.36 | 0.943 ± 0.36 | 0.561 ± 0.2 | 0.442 ± 0.098 | 0.253 ± 0.07 | 0.191 ± 0.048 | 0.0983 ± 0.031 | 0.0747 ± 0.0055 | 1.37 ± 0.51 | 0.842 ± 0.83 | 0.874 ± 0.71 | 1.11 ± 0.68 | 0.514 ± 0.12 | 0.534 ± 0.12 | 0.218 ± 0.053 | 0.186 ± 0.043
2 | HCC1395 BREAST | 1.05 ± 0.14 | 1.14 ± 0.1 | 1.03 ± 0.043 | 1.13 ± 0.046 | 1.01 ± 0.15 | 1.12 ± 0.026 | 1.05 ± 0.23 | 0.92 ± 0.12 | 0.865 ± 0.17 | 0.862 ± 0.071 | 0.943 ± 0.15 | 1.16 ± 0.23 | 0.975 ± 0.15 | 1.15 ± 0.066 | 0.818 ± 0.1 | 0.893 ± 0.05
3 | HCC1806 BREAST | 1.1 ± 0.084 | 1 ± 0.038 | 0.893 ± 0.071 | 0.726 ± 0.075 | 0.57 ± 0.045 | 0.586 ± 0.028 | 0.401 ± 0.036 | 0.343 ± 0.03 | 1.15 ± 0.15 | 1.04 ± 0.064 | 1.12 ± 0.012 | 1.07 ± 0.07 | 0.05 ± 0.0085 | 0.03 ± 0.001 | 0.029 | 0.035 ± 0.001
4 | HCC1954 BREAST | 0.969 ± 0.079 | 0.886 ± 0.021 | 0.763 ± 0.028 | 0.56 ± 0.0078 | 0.471 ± 0.094 | 0.479 ± 0.025 | 0.266 ± 0.038 | 0.145 ± 0.011 | 0.8303 ± 0.0039 | 0.93 ± 0.028 | 0.873 ± 0.042 | 0.762 ± 0.06 | 0.151 ± 0.0095 | 0.109 ± 0.0067 | 0.0587 ± 0.0011 | 0.062 ± 0.0021
5 | HMLE3 BREAST | 0.989 ± 0.042 | 1.02 ± 0.034 | 0.993 ± 0.054 | 0.904 ± 0.074 | 0.905 ± 0.035 | 0.946 ± 0.04 | 0.842 ± 0.087 | 0.77 ± 0.021 | 0.975 ± 0.02 | 1 ± 0.054 | 0.999 ± 0.074 | 1.09 ± 0.032 | 0.0933 ± 0.011 | 0.0567 ± 0.0045 | 0.0233 ± 0.0015 | 0.027 ± 0.001
6 | HMT3552 BREAST | 0.823 | 0.878 | 0.885 | 0.727 | 0.904 | 0.881 | 0.593 | 0.278 | 1.04 | 1.05 | 1.12 | 1.08 | 0.171 | 0.106 | 0.082 | 0.079
7 | HS57T BREAST | 1.05 ± 0.053 | 1.03 ± 0.056 | 1.13 ± 0.023 | 1.04 ± 0.051 | 1.11 ± 0.077 | 1.09 ± 0.076 | 0.787 ± 0.024 | 0.423 ± 0.057 | 1.1 ± 0.014 | 1.09 ± 0.046 | 1.15 ± 0.034 | 1.13 ± 0.034 | 0.215 ± 0.011 | 0.22 ± 0.016 | 0.127 ± 0.0093 | 0.126 ± 0.0052
8 | HS578T BREAST | 1.01 ± 0.096 | 0.937 ± 0.017 | 1.08 ± 0.13 | 1.12 ± 0.039 | 1.17 ± 0.13 | 1.02 ± 0.052 | 0.662 ± 0.054 | 0.243 ± 0.048 | 1.07 ± 0.13 | 0.93 ± 0.099 | 0.871 ± 0.056 | 0.992 ± 0.22 | 0.387 ± 0.044 | 0.466 ± 0.021 | 0.298 ± 0.037 | 0.245 ± 0.029
9 | HT1080 SOFT TISSUE | 0.994 ± 0.033 | 1.02 ± 0.015 | 1.037 ± 0.0045 | 0.991 ± 0.048 | 0.985 ± 0.036 | 1 ± 0.047 | 0.943 ± 0.031 | 0.729 ± 0.055 | 1.02 ± 0.016 | 1.03 ± 0.0021 | 1.062 ± 0.0015 | 1.155 ± 0.01 | 0.414 ± 0.034 | 0.238 ± 0.011 | 0.121 ± 0.007 | 0.12 ± 0.01
10 | HU09 BONE | 1.08 ± 0.085 | 1.02 ± 0.1 | 1.16 ± 0.074 | 1.14 ± 0.087 | 1.12 ± 0.067 | 1.06 ± 0.15 | 0.6 ± 0.049 | 0.231 ± 0.012 | 1.02 ± 0.032 | 0.991 ± 0.095 | 1.03 ± 0.15 | 0.701 ± 0.017 | 0.0323 ± 0.0029 | 0.023 ± 0.0017 | 0.0257 ± 0.0021 | 0.03 ± 0.002
11 | HUO3N1 BONE | 1.03 ± 0.034 | 1 ± 0.019 | 1.06 ± 0.027 | 1.04 ± 0.068 | 1.03 ± 0.031 | 0.959 ± 0.017 | 0.824 ± 0.028 | 0.631 ± 0.034 | 0.99 ± 0.02 | 1.03 ± 0.021 | 1.07 ± 0.032 | 1.1 ± 0.06 | 0.767 ± 0.023 | 0.503 ± 0.026 | 0.391 ± 0.02 | 0.319 ± 0.0095
12 | JIMT1 BREAST | 0.987 ± 0.023 | 0.994 ± 0.029 | 0.96 ± 0.015 | 0.909 ± 0.044 | 0.732 ± 0.028 | 0.687 ± 0.049 | 0.603 ± 0.012 | 0.301 ± 0.014 | 0.994 ± 0.017 | 0.973 ± 0.032 | 1.01 ± 0.026 | 1.01 ± 0.015 | 0.792 ± 0.0081 | 0.271 ± 0.029 | 0.0693 ± 0.0067 | 0.0723 ± 0.0026
13 | JURKAT HAEMATOPOIETIC AND LYMPHOID TISSUE | 1.07 ± 0.017 | 1.08 ± 0.025 | 1.07 ± 0.025 | 1.07 ± 0.02 | 1.03 ± 0.098 | 1.05 ± 0.023 | 0.779 ± 0.014 | 0.259 ± 0.043 | 1.06 ± 0.014 | 1.05 ± 0.02 | 0.973 ± 0.082 | 0.942 ± 0.026 | 0.094 ± 0.0027 | 0.0437 ± 0.00058 | 0.0387 ± 0.0023 | 0.0443 ± 0.0011
14 | LM7 BONE | 1.02 ± 0.049 | 1 ± 0.14 | 1.02 ± 0.074 | 1.07 ± 0.026 | 1.02 ± 0.026 | 0.914 ± 0.091 | 0.443 ± 0.051 | 0.169 ± 0.013 | 1 ± 0.11 | 0.896 ± 0.075 | 0.946 ± 0.059 | 0.904 ± 0.077 | 0.294 ± 0.028 | 0.176 ± 0.0099 | 0.0897 ± 0.0035 | 0.0873 ± 0.01
15 | LNCAP PROSTATE | 1.03 ± 0.093 | 0.998 ± 0.083 | 0.995 ± 0.062 | 0.922 ± 0.073 | 0.892 ± 0.11 | 1.01 ± 0.069 | 0.854 ± 0.1 | 0.649 ± 0.051 | 0.905 ± 0.09 | 0.969 ± 0.13 | 0.79 ± 0.043 | 0.774 ± 0.12 | 0.19 ± 0.022 | 0.124 ± 0.0057 | 0.05 ± 0.004 | 0.06 ± 0.0072
16 | MCF7 BREAST | 0.944 ± 0.025 | 0.905 ± 0.028 | 0.955 ± 0.017 | 0.942 ± 0.032 | 1.01 ± 0.035 | 1.08 ± 0.053 | 0.986 ± 0.073 | 0.953 ± 0.023 | 0.9 ± 0.094 | 0.925 ± 0.068 | 0.94 ± 0.066 | 0.906 ± 0.07 | 0.627 ± 0.02 | 0.465 ± 0.011 | 0.303 ± 0.015 | 0.321 ± 0.01
17 | MDAMB134 BREAST | 1.07 ± 0.046 | 0.997 ± 0.15 | 1.24 ± 0.25 | 0.967 ± 0.15 | 1.09 ± 0.078 | 0.886 ± 0.076 | 0.741 ± 0.031 | 0.725 ± 0.12 | 0.902 ± 0.096 | 1.17 ± 0.23 | 0.892 ± 0.26 | 0.956 ± 0.052 | 0.789 ± 0.098 | 0.884 ± 0.036 | 0.543 ± 0.0057 | 0.54 ± 0.12
18 | MDAMB157 BREAST | 0.993 ± 0.14 | 0.975 ± 0.048 | 0.96 ± 0.09 | 0.976 ± 0.16 | 0.979 ± 0.069 | 0.944 ± 0.12 | 0.85 ± 0.097 | 0.526 ± 0.06 | 0.999 ± 0.11 | 0.958 ± 0.067 | 0.941 ± 0.059 | 1.11 ± 0.043 | 0.575 ± 0.12 | 0.266 ± 0.06 | 0.258 ± 0.043 | 0.191 ± 0.01
19 | MDAMB436 BREAST | 0.924 ± 0.014 | 0.974 ± 0.078 | 0.922 ± 0.05 | 0.905 ± 0.0097 | 0.996 ± 0.063 | 0.892 ± 0.035 | 0.763 ± 0.06 | 0.647 ± 0.029 | 0.91 ± 0.056 | 0.873 ± 0.066 | 0.892 ± 0.044 | 0.903 ± 0.12 | 0.471 ± 0.016 | 0.305 ± 0.0098 | 0.316 ± 0.013 | 0.326 ± 0.011
20 | MDAMB453 BREAST | 1.08 ± 0.061 | 1 ± 0.045 | 1.05 ± 0.064 | 1.05 ± 0.029 | 0.777 ± 0.076 | 0.668 ± 0.091 | 0.576 ± 0.027 | 0.41 ± 0.026 | 1.02 ± 0.034 | 1.08 ± 0.036 | 1.08 ± 0.028 | 1.08 ± 0.037 | 0.458 ± 0.055 | 0.254 ± 0.016 | 0.0493 ± 0.013 | 0.0633 ± 0.017
21 | MDAMB468 BREAST | 1.07 ± 0.026 | 1.04 ± 0.021 | 0.861 ± 0.078 | 0.767 ± 0.14 | 0.61 ± 0.017 | 0.617 ± 0.025 | 0.297 ± 0.012 | 0.0913 ± 0.0067 | 1.038 ± 0.0097 | 1.05 ± 0.097 | 1.1 ± 0.043 | 1.033 ± 0.009 | 0.138 ± 0.013 | 0.164 ± 0.021 | 0.221 ± 0.026 | 0.207 ± 0.031
